Reference: ChEMBL document CHEMBL4402539, “Biological effects and activity optimization of small-molecule, drug-like synthetic anion transporters” (Eur J Med Chem, 2019)
pIC50: −log10 of the molar value.

What was measured:
Type in all cases: functional, cell-based
[1] = tested on: HeLa; test: Cytotoxicity in human HeLa cells assessed as reduction in cell viability after 18 hrs by MTT assay
[2] = tested on: CAPAN-1; test: Cytotoxicity in human Capan1 cells assessed as reduction in cell viability after 18 hrs by MTT assay; conditions: CAPAN-1, 18 h
[3] = tested on: A549; test: Cytotoxicity in human A549 cells assessed as reduction in cell viability after 18 hrs by MTT assay; conditions: A549, 18 h
[4] = tested on: HCT-116; test: Cytotoxicity in human HCT116 cells assessed as reduction in cell viability after 18 hrs by MTT assay; conditions: HCT-116, 18 h

Measured: pIC50

CC1(C)c2ccc([nH]2)C2(C)CCCNC(=O)c3cccc(n3)C(=O)NCCCC(C)(c3ccc1[nH]3)c1ccc([nH]1)C(C)(C)c1ccc2[nH]1
4.82 to 5.00: [1] | [2] | [3] | [4]

CC1(C)c2ccc([nH]2)C2(C)CCCCNC(=O)c3cccc(n3)C(=O)NCCCCC(C)(c3ccc1[nH]3)c1ccc([nH]1)C(C)(C)c1ccc2[nH]1
4.82 to 5.00: [1] | [2] | [3] | [4]
